The values below come from patent publication US9828379B2 (priority 2013, dated 2017).

Some results are limits rather than exact numbers.

Experiment [1] concerns the target T1, MAGL (Mus musculus, UniProt O35678).
T1 sequence (O35678 1-303): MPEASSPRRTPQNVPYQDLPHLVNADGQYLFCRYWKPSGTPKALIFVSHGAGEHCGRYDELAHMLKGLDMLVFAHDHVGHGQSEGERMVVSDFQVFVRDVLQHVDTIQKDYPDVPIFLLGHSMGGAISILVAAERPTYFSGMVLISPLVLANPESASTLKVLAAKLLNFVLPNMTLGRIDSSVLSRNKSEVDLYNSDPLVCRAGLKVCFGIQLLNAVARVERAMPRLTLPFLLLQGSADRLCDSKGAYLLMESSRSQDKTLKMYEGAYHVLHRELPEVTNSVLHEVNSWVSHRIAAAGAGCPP
Briefly: biochemical. The following applies: mouse; in vitro competitive ABPP; read-out: Mouse (IC50 value, nM) MAGL.

Another experiment has as its target T2, Mouse brain MAGL (Mus musculus, UniProt O35678).
T2 construct: from tissue; host or cells: brain of wild-type C57Bl/6J mice dosed by oral gavage
T2 sequence (O35678 1-303): T1 sequence (O35678 1-303)
Briefly: Mouse brain proteomes from inhibitor treated mice (oral gavage, ABPP analysis). In kind it is in vivo. The following applies: p.o., sacrificed 4 h following administration.

Experiment [2] addresses T3, FAAH (Mus musculus, UniProt O08914).
T3 sequence (O08914 1-579): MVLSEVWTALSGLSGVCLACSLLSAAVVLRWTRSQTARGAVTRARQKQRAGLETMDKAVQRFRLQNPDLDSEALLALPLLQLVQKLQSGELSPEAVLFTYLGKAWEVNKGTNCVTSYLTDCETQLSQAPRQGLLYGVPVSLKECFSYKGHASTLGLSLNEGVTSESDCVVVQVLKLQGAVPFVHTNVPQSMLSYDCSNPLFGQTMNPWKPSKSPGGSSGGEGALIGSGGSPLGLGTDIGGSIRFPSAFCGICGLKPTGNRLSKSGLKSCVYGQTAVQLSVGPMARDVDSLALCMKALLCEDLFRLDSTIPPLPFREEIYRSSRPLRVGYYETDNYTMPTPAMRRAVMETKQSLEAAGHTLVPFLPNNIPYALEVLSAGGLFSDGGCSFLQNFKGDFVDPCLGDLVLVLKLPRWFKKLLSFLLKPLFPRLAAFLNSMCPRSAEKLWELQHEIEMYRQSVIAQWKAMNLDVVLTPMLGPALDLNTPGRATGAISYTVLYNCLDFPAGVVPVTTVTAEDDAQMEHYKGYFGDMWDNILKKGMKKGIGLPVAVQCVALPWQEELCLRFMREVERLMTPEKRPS
As to the kind of experiment: biochemical. Particulars: in vitro competitive ABPP.

The target in experiment [3] is T4, ABHD6 (Mus musculus, UniProt Q8R2Y0).
T4 sequence (Q8R2Y0 1-336): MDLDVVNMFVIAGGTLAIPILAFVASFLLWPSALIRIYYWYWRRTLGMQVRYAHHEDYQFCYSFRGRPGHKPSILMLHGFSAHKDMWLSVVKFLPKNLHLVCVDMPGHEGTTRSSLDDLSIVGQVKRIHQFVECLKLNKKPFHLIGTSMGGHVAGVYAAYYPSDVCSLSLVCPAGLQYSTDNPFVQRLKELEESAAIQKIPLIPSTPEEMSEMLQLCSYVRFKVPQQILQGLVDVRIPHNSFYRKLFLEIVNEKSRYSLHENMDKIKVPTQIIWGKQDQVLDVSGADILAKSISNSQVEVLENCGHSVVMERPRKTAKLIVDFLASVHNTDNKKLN
As to the kind of experiment: biochemical. Particulars: in vitro competitive ABPP.

The target in experiment [4] is T1, MAGL. As to the kind of experiment: In vitro competitive activity-based protein profiling (Table 2, % inhibition at 1 μM). In kind it is biochemical. The following applies: read-out: % Inhibition at 1 μM MAGL. The procedure:
After 30 min, FP—Rh (1.0 μL, 50 μM in DMSO) was added and the mixture was incubated for another 30 min at 37° C. Reactions were quenched with SDS loading buffer (50 μL-4×) and run on SDS-PAGE.
Cell lysates were diluted with mock proteomes for use in competitive ABPP experiments.

The target in experiment [5] is T3, FAAH. The experiment is described as above. Particulars: read-out: % Inhibition at 1 μM FAAH. The format is biochemical.
Experiment [6] concerns the target T4, ABHD6. The description is as above. The format is biochemical. The following applies: read-out: % Inhibition at 1 μM ABHD6.

By IC50 is commonly meant the concentration that gives 50% inhibition. Broadly, the inhibition is the drop in the measured response relative to a control, in per cent. With `CC(C)(C)c1cc(CN2CC3CN(C(=O)OC(C(F)(F)F)C(F)(F)F)CC3C2)n(-c2ccccc2Cl)n1` (centres unmarked) [Example 170, 1,1,1,3,3,3-hexafluoropropan-2-yl 5-[[3-tert-butyl-1-(2-chlorophenyl)-1H-pyrazol-5-yl]methyl]-octahydropyrrolo[3,4-c]pyrrole-2-carboxylate], the figures for the IC50 at MAGL [1], on FAAH [2] and at ABHD6 [3] were less than 100 nM, more than 10000 nM and 1000 to 10000 nM, respectively. At Mouse brain MAGL, this compound gave an inhibition at 5 mg/kg of 25 to 75%. In addition, the results for the inhibition at 1 µM at MAGL [4], on FAAH [5] and on ABHD6 [6] were more than 75%, less than 25% and 25 to 75%, respectively.

Regarding `O=C(OC(C(F)(F)F)C(F)(F)F)N1CC2CN(Cc3cccc(Cl)c3N3CCC4(CCOCC4)C3)CC2C1` (centres unmarked) [Example 172, 1,1,1,3,3,3-hexafluoropropan-2-yl 5-[(3-chloro-2-[8-oxa-2-azaspiro[4.5]decan-2-yl]phenyl)methyl]-octahydropyrrolo[3,4-c]pyrrole-2-carboxylate], the IC50 at MAGL [1] is less than 100 nM; on FAAH [2], more than 10000 nM; on ABHD6 [3] it was 1000 to 10000 nM. The compound also displayed an inhibition at 5 mg/kg against Mouse brain MAGL not above 25%. Further, the inhibition at 1 µM at MAGL [4] was more than 75%; at FAAH [5] it was less than 25%; at ABHD6 [6], less than 25%.

For the compound `Cc1cc(CN2CC3CN(C(=O)OC(C(F)(F)F)C(F)(F)F)CC3C2)n(C2CCCCC2)n1` (centres unmarked) [Example 58, 1,1,1,3,3,3-Hexafluoropropan-2-yl 5-[(1-cyclohexyl-3-methyl-1H-pyrazol-5-yl)methyl]-octahydropyrrolo[3,4-c]pyrrole-2-carboxylate], the figures for the IC50 at MAGL [1], at FAAH [2] and at ABHD6 [3] were less than 100 nM, more than 10000 nM and 1000 to 10000 nM, respectively. The same compound yielded an inhibition at 5 mg/kg against Mouse brain MAGL not below 75%. The inhibition at 1 µM at MAGL [4] was more than 75%; at FAAH [5], less than 25%; on ABHD6 [6] it was 25 to 75%.

For `CCn1cc(CN2CC3CN(C(=O)OC(C(F)(F)F)C(F)(F)F)CC3C2)c(-c2cccc(N3CCCC3)c2)n1` (centres unmarked) [Example 64, 1,1,1,3,3,3-Hexafluoropropan-2-yl 5-([1-ethyl-3-[3-(pyrrolidin-1-yl)phenyl]-1H-pyrazol-4-yl]methyl)-octahydropyrrolo[3,4-c]pyrrole-2-carboxylate], the IC50 at MAGL [1] is less than 100 nM; on FAAH [2] it was 1000 to 10000 nM; on ABHD6 [3] it was 1000 to 10000 nM. Also, the inhibition at 5 mg/kg against Mouse brain MAGL lay in the range of 25 to 75%. For the same compound, the inhibition at 1 µM on MAGL [4] is more than 75%; on FAAH [5], less than 25%; at ABHD6 [6] it was less than 25%.

In the case of `CCn1cc(CN2CC3CN(C(=O)OC(C(F)(F)F)C(F)(F)F)CC3C2)c(-c2ccc(N3CCC3)cc2)n1` (centres unmarked) [Example 69, 1,1,1,3,3,3-Hexafluoropropan-2-yl 5-([3-[4-(azetidin-1-yl)phenyl]-1-ethyl-1H-pyrazol-4-yl]methyl)-octahydropyrrolo[3,4-c]pyrrole-2-carboxylate], the figures for the IC50 on MAGL [1], at FAAH [2] and at ABHD6 [3] were less than 100 nM, 1000 to 10000 nM and 1000 to 10000 nM, respectively. This compound gave an inhibition at 5 mg/kg at Mouse brain MAGL not above 25%. In addition, the inhibition at 1 µM at MAGL [4] is more than 75%; at FAAH [5], less than 25%; on ABHD6 [6], 25 to 75%.

As to `Cc1c(CN2CC3CN(C(=O)OC(C(F)(F)F)C(F)(F)F)CC3C2)cccc1N1C2CCC1COC2` (centres unmarked) [Example 127, 1,1,1,3,3,3-hexafluoropropan-2-yl 5-[(2-methyl-3-[3-oxa-8-azabicyclo[3.2.1]octan-8-yl]phenyl)methyl]-octahydropyrrolo[3,4-c]pyrrole-2-carboxylate], the IC50 at MAGL [1] is less than 100 nM; on FAAH [2], 1000 to 10000 nM; at ABHD6 [3], 1000 to 10000 nM. At Mouse brain MAGL, this compound had an inhibition at 5 mg/kg of 25 to 75%. In addition, the results for the inhibition at 1 µM at MAGL [4], at FAAH [5] and at ABHD6 [6] were more than 75%, less than 25% and 25 to 75%, respectively.

Take `O=C(OC(C(F)(F)F)C(F)(F)F)N1CC2CN(Cc3cccc(Cl)c3N3CC[C@H](CF)C3)CC2C1` (stereo partly drawn) [Example 173, 1,1,1,3,3,3-hexafluoropropan-2-yl 5-([3-chloro-2-[(3S)-3-(fluoromethyl)pyrrolidin-1-yl]phenyl]methyl)-octahydropyrrolo[3,4-c]pyrrole-2-carboxylate]: the IC50 is less than 100 nM at MAGL [1], 1000 to 10000 nM on FAAH [2] and more than 10000 nM on ABHD6 [3]. In addition, the inhibition at 5 mg/kg against Mouse brain MAGL fell in the range of 25 to 75%. For the same compound, the results for the inhibition at 1 µM at MAGL [4], at FAAH [5] and on ABHD6 [6] were more than 75%, less than 25% and 25 to 75%, respectively.

In the case of `CC(=O)N1CCN(c2cc(C(C)C)ccc2CN2CC3CN(C(=O)OC(C(F)(F)F)C(F)(F)F)CC3C2)CC1` (centres unmarked) [Example 24, 1,1,1,3,3,3-Hexafluoropropan-2-yl 5-[[2-(4-acetylpiperazin-1-yl)-4-(propan-2-yl)phenyl]methyl]-octahydropyrrolo[3,4-c]pyrrole-2-carboxylate], the IC50 at MAGL [1] was less than 100 nM; at FAAH [2] it was more than 10000 nM; on ABHD6 [3] it was 1000 to 10000 nM. Besides, the inhibition at 5 mg/kg at Mouse brain MAGL is not above 25%. The inhibition at 1 µM at MAGL [4] was more than 75%; on FAAH [5] it was less than 25%; on ABHD6 [6], 25 to 75%.

In the case of `CC(C)n1cc(CN2CC3CN(C(=O)OC(C(F)(F)F)C(F)(F)F)CC3C2)c(C2CCN(S(C)(=O)=O)CC2)n1` (centres unmarked) [Example 57, 1,1,1,3,3,3-Hexafluoropropan-2-yl 5-[[3-(1-methanesulfonylpiperidin-4-yl)-1-(propan-2-yl)-1H-pyrazol-4-yl]methyl]-octahydropyrrolo[3,4-c]pyrrole-2-carboxylate], the IC50 at MAGL [1] is less than 100 nM; on FAAH [2], more than 10000 nM; at ABHD6 [3], 1000 to 10000 nM. On Mouse brain MAGL, the inhibition at 5 mg/kg is not above 25%. Further, the inhibition at 1 µM on MAGL [4] is more than 75%; at FAAH [5], less than 25%; at ABHD6 [6] it was 25 to 75%.

For the compound `CCn1cc(CN2CC3CN(C(=O)OC(C(F)(F)F)C(F)(F)F)CC3C2)c(-c2ccc(N3CCCC3)cc2)n1` (centres unmarked) [Example 67, 1,1,1,3,3,3-Hexafluoropropan-2-yl 5-([1-ethyl-3-[4-(pyrrolidin-1-yl)phenyl]-1H-pyrazol-4-yl]methyl)-octahydropyrrolo[3,4-c]pyrrole-2-carboxylate], the figures for the IC50 on MAGL [1], on FAAH [2] and on ABHD6 [3] were less than 100 nM, 1000 to 10000 nM and 1000 to 10000 nM, respectively. Besides, at Mouse brain MAGL, the inhibition at 5 mg/kg was in the range of 25 to 75%. Also, the inhibition at 1 µM at MAGL [4] is more than 75%; on FAAH [5] it was less than 25%; at ABHD6 [6], less than 25%.

As for `CCc1cc(CN2CC3CN(C(=O)OC(C(F)(F)F)C(F)(F)F)CC3C2)n(-c2ccccc2Cl)n1` (centres unmarked) [Example 169, 1,1,1,3,3,3-hexafluoropropan-2-yl 5-[[1-(2-chlorophenyl)-3-ethyl-1H-pyrazol-5-yl]methyl]-octahydropyrrolo[3,4-c]pyrrole-2-carboxylate], the IC50 was less than 100 nM at MAGL [1], 1000 to 10000 nM on FAAH [2] and 1000 to 10000 nM at ABHD6 [3]. The compound further gave an inhibition at 5 mg/kg at Mouse brain MAGL not above 25%. Further, the inhibition at 1 µM on MAGL [4] is more than 75%; on FAAH [5], less than 25%; on ABHD6 [6], 25 to 75%.
